Measured values reported in patent US20260116910A1, “POLYCYCLIC COMPOUNDS AND METHODS THEREOF” (HEPAITECH (BEIJING) BIOPHARMA TECHNOLOGY CO., LTD., priority 2021, published 2026).

Tests used:
[1] = target: T1, human FXR (NR1H4) (Homo sapiens, UniProt Q96RI1); experiment: Human FXR (NR1H4) agonist assessment, FXRE-NanoLuc reporter in HEK293T cells; type: cell-based; conditions: FXR activation, HEK293T FXRE-NanoLuc reporter, 24 hr; for EC50: read-out: EC50
T1 sequence (Q96RI1 1-476 isoform Q96RI1-1): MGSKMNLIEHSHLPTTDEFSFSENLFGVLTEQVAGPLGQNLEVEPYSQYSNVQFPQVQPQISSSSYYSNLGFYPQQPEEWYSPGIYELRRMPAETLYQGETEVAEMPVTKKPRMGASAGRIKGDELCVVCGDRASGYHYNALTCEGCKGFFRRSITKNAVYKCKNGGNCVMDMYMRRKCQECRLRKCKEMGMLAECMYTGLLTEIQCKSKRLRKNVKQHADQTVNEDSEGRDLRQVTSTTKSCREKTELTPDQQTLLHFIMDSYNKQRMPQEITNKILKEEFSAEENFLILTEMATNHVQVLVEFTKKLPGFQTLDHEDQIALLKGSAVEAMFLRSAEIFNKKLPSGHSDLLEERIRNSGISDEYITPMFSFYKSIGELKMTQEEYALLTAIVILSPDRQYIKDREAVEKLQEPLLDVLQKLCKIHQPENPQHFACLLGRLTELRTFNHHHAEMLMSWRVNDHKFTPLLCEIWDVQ
Summary of the method: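 HEK293T cells stably expressing human FXR with an FXRE-NanoLuc reporter were treated with compounds for 24 hr at 37 °C, with 0.01% DMSO as negative control. Medium was read for luminescence after 5 min with coelenterazine. EC50 was fitted by sigmoid to concentration-response data.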

[2] = target: MRGPRX4 (Homo sapiens, UniProt Q96LA9); experiment: MRGPRX4 activation, Fluo-8 Ca2+ FLIPR assay in HEK293T cells stably expressing MRGPRX4; type: cell-based; parameters: key to MRGPRX4 activation, Average / MRGPRX4 activation, Ave.: fluorescence change dF/F0; conditions: for EC50: MRGPRX4 activation, Ca2+ fluorescence, no activation in tested range reported as III, read-out: Activity (EC50 μM)
MRGPRX4, sequence (Q96LA9 whole entry): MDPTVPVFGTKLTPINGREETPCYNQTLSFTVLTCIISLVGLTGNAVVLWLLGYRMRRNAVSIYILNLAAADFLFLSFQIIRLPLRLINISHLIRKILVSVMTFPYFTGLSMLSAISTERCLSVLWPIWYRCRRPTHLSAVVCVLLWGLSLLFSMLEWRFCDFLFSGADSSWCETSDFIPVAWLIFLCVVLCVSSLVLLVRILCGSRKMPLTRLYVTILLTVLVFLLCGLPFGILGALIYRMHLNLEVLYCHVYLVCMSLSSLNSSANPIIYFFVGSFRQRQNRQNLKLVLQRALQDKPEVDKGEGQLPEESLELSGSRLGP
Summary of the method: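 Cells seeded overnight to >95% confluence, loaded 40-60 min at room temperature with 2 μM Fluo-8 AM, then kept in HHBS. Baseline read 30 s, compound added, signal followed 150 s more.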

Compound | Efficacy (maximum measured induction of NanoLuc, normalized to CDCA set as 100%) [1] | EC50 [1] [µM] | EC50 [2] [µM] | MRGPRX4 activation, Average ([2]; E3-9, Conc. (Log[M]) −4.0) | MRGPRX4 activation, Average ([2]; E3-9, Conc. (Log[M]) −4.5) | MRGPRX4 activation, Average ([2]; E3-9, Conc. (Log[M]) −5.0) | MRGPRX4 activation, Average ([2]; E3-9, Conc. (Log[M]) −5.4) | MRGPRX4 activation, Average ([2]; E3-9, Conc. (Log[M]) −5.9) | MRGPRX4 activation, Average ([2]; E3-9, Conc. (Log[M]) −6.4) | MRGPRX4 activation, Average ([2]; E3-9, Conc. (Log[M]) −6.9) | MRGPRX4 activation, Average ([2]; E3-9, Conc. (Log[M]) −7.3) | MRGPRX4 activation, Average ([2]; E3-9, Conc. (Log[M]) −7.8) | MRGPRX4 activation, Average ([2]; E3-9, Conc. (Log[M]) −8.3) | other results
CC[C@H]1[C@@H](O)[C@@H]2[C@H](CC[C@]3(C)[C@@H]([C@H](C)CCNC(=O)C(=O)NS(=O)(=O)c4cc(F)cc(F)c4)CC[C@@H]23)[C@@]2(C)CCCC[C@@H]12 [8-4] | B (300%<efficacy <=400%) | < 1 | > 100 |  |  |  |  |  |  |  |  |  |  | MRGPRX4 activation, Ave. ([2]; E3-7, Conc. (Log[M]) −4): −0.041; MRGPRX4 activation, Ave. ([2]; E3-7, Conc. (Log[M]) −4.5): −0.027; MRGPRX4 activation, Ave. ([2]; E3-7, Conc. (Log[M]) −5): −0.014; MRGPRX4 activation, Ave. ([2]; E3-7, Conc. (Log[M]) −5.5): −0.014; MRGPRX4 activation, Ave. ([2]; E3-7, Conc. (Log[M]) −6): 0.000; MRGPRX4 activation, Ave. ([2]; E3-7, Conc. (Log[M]) −7): 0.000
CC[C@H]1[C@@H](O)[C@@H]2[C@H](CC[C@]3(C)[C@@H]([C@H](C)CCNC(=O)C(=O)NS(=O)(=O)c4cc(F)ccc4F)CC[C@@H]23)[C@@]2(C)CCCC[C@@H]12 [8-5] | C (100%<efficacy <=300%) | < 1 | > 100 | 0.030 | 0.016 | 0.018 | 0.018 | 0.018 | 0.016 | 0.020 | 0.016 | 0.011 | 0.011 | 
CC[C@H]1[C@@H](O)[C@@H]2[C@H](CC[C@]3(C)[C@@H]([C@H](C)CCNC(=O)NS(=O)(=O)c4ccc(C(C)(C)CF)cc4)CC[C@@H]23)[C@@]2(C)CC[C@H](F)C[C@@H]12 [9-1] | B (300%<efficacy <=400%) | < 1 | > 100 | 0.019 | 0.021 | 0.012 | 0.018 | 0.014 | 0.019 | 0.016 | 0.016 | 0.012 | 0.018 | 
CC[C@H]1[C@@H](O)[C@@H]2[C@H](CC[C@]3(C)[C@@H]([C@H](C)CCNC(=O)NS(=O)(=O)c4cc(F)ccc4F)CC[C@@H]23)[C@@]2(C)CC[C@H](F)C[C@@H]12 [9-2] | B (300%<efficacy <=400%) | < 1 | 50 to 100 | 0.035 | 0.001 | 0.002 | 0.019 | 0.018 | 0.018 | 0.014 | 0.019 | 0.016 | 0.019 | MRGPRX4 activation, fluorescence change (dF/F0), Average ([2]; Conc. (Log[M]) −4): 0.655; MRGPRX4 activation, fluorescence change (dF/F0), Average ([2]; Conc. (Log[M]) −4.5): 0.162; MRGPRX4 activation, fluorescence change (dF/F0), Average ([2]; Conc. (Log[M]) −5): 0.011; MRGPRX4 activation, fluorescence change (dF/F0), Average ([2]; Conc. (Log[M]) −5.5): −0.068; MRGPRX4 activation, fluorescence change (dF/F0), Average ([2]; Conc. (Log[M]) −6): −0.030; MRGPRX4 activation, fluorescence change (dF/F0), Average ([2]; Conc. (Log[M]) −7): −0.029; MRGPRX4 activation, fluorescence change (dF/F0), Average ([2]; Conc. (Log[M]) −8): −0.035; MRGPRX4 activation, fluorescence change (dF/F0), Average ([2]; Conc. (Log[M]) −9): −0.072
